Source: US10213449B2, “Compositions and methods for treating medulloblastoma” (The Board of Trustees of the Leland Stanford Junior …, priority 2016, dated 2019)

How the values were obtained:
[1] = test system: GNP proliferation / cerebellum; assay: CK2 inhibition in developing mouse (cerebellar development); format: in vivo; details: mice injected with TBB between P3-P7 (30 mg/kg IP bid)
Protocol: The role of CK2 in cerebellar development was next investigated by injecting mice with the CK2 inhibitor TBB between P3-P7 (FIG. 2e).
Math1/nGFPtransgenic mice^8 were treated with DMSO or TBB (30 mg/kg IP bid) (EMD 218697) from […] then sacrificed 6 h following their final treatment. Brains were dissected, fixed in 4% PFA overnight then transferred into 20% sucrose for 24 h. Sections were mounted in O.C.T and sectioned at 20 μm then air-dried for 20 min prior to storing at −20° C. for up to 2 months. Sections were blocked in 0.2% triton X-100 and 2% goat serum diluted in sterile PBS for 1 h at RT. Primary antibodies used were: anti-NeuN Ab (1:200, COT: 2459079, EMD Millipore), anti-Tag1 Ab (1:100, antibody derived in the Scott lab) and TUNEL staining as per manufacturers instructions (Roche In situ Cell Death Detection Kit, cat. no. 1 684 809). All sections were incubated in primary antibody overnight at 4° C. and counter-stained with Hoechst33258 (final concentration 1 μl/ml in PBS) at RT for 10 min. Images were taken on a Leica TCS SP8 confocal microscope. Images were randomized and all measurements (length, width, Atoh-1, Tag1, TUNNEL staining) were performed by a blinded collaborator. Cerebellar folia length was compared between matched sections of control and treated mice by measuring the maximal length from the mid-base to the tip of the culmun (lobule 4/5). Culmen width was measured […] from the base of the folia between lobules 5 and 6. Prism statistical analysis software was used (GraphPad Software, CA) to calculate significance as determined by two-tailed T-tests.

[2] = test system: Brd4 occupancy at Gli1 and Gli2 promoters; assay: Brd4 ChIP-qPCR in NIH3T3s stimulated with SHH; format: cell-based, mouse
Protocol: It was therefore investigated whether CK2 regulates Brd4-mediated transactivation of the Gli promoters. Chromatin immunoprecipitation (ChIP) was performed in NIH3T3s stimulated with SHH using anti-Brd4 antibodies, followed by quantitative PCR (qPCR) of regions flanking the transcription start sites within the Gli1 and Gli2 promoters.
Wildtype CD1-Elite (Charles River strain 482) P7 mice were randomized to control or treatment groups then given two injections of DMSO (control) or TBB (30 mg/kg) q12h×2. Mice were sacrificed and GNPs were isolated as described in “GNP isolation”. Chomatin immunoprecipitation was performed as previously described. GNPs were cross-linked in 1% formaldehyde for 10 minutes at RT then fixation was stopped by adding 2.5M glycine for 10 minutes. Samples were washed and stored at −80 until all samples were collected. Crosslinked cells were later thawed on ice, incubated in chilled RIPA for 10 min and sonicated 7×15 min. To prepare blocking beads, 60 uL/sample of protein G beads (Roche 11719416001) were incubated with 5% BSA on a rocker at 4 degrees for at least 1 h. […] ChIP and input DNA was quantified using Qubit DS DNA HS assay as per manufacturer's protocol (ThermoFisher Q32851). […] Library was quantified via Qubit DS DNA HS assay and library quality was determined using an Agilent 2100 Bioanalyzer. […]

[3] = test system: Gli2 binding at Gli target genes in GNPs; assay: H3K27ac and Gli2 Chipseq in GNPs purified from TBB-injected P7 mice; format: in vivo, mouse; details: two injections of TBB (30 mg/kg) over 18 h
Protocol: Brd4 occupancy at both Gli1 and Gli2 promoters was blocked by the addition of TBB (FIG. 3e). Given that Brd4's primary role as a reader of H3K27ac histone modifications, whether the effect of TBB on Gli target genes correlated with H3K27ac in GNP on a genome-wide scale was next examined. GNPs were purified from P7 mice following two injections of TBB over an 18 h period. Chipseq using H3K27ac and Gli2 antibodies were performed and Gli target genes were binned into either ‘high’ or low H3K27ac′ groups. […] For example, Gli1 had low H3K27ac in GNPs but high H3K27ac in NIH 3T3's. In contrast, Gli2 and Ptch both had high H3K27ac marks in both GNPs and NIH 3T3's.
Wildtype CD1-Elite (Charles River strain 482) P7 mice were randomized to control or treatment groups then given two injections of DMSO (control) or TBB (30 mg/kg) q12h×2. Mice were sacrificed and GNPs were isolated as described in “GNP isolation”. Chomatin immunoprecipitation was performed as previously described. GNPs were cross-linked in 1% formaldehyde for 10 minutes at RT then fixation was stopped by adding 2.5M glycine for 10 minutes. […] ChIP and input DNA was quantified using Qubit DS DNA HS assay as per manufacturer's protocol (ThermoFisher Q32851). […] Library was quantified via Qubit DS DNA HS assay and library quality was determined using an Agilent 2100 Bioanalyzer. […]

Hh signaling in GNPs = assay: Transcript levels in GNPs following Hh stimulation; format: cell-based, mouse

Brd4 occupancy at Gli1 promoter [2]: blocked
Brd4 occupancy at Gli2 promoter [2]: blocked
Gli binding at 'high' H3K27ac marked Gli target genes compared to low H3K27ac marked genes [3]: statistically significant decrease
Structure (SMILES): Brc1c(Br)c(Br)c2[nH]nnc2c1Br [TBB, 4,5,6,7-tetrabromo-2H-benzotriazole]
GNP-dependent foliary width [1]: decrease
apoptosis [1]: no significant change
cerebellar size [1]: decrease
foliary length [1]: no significant change
number of ATOH-1 positive proliferating GNPs [1]: decrease
rate of differentiation [1]: no significant change
Gli1 transcript levels (Hh signaling in GNPs): no change
Gli2 transcript levels (Hh signaling in GNPs): effective at decreasing
Ptch transcript levels (Hh signaling in GNPs): effective at decreasing
